From patent US9725412B2, “Polymorphic forms of perindopril (L)-arginine and process for the preparation thereof” (Mylan Laboratories Limited, priority 2008, dated 2017)

Experiments:
[1] = Physical stability on drying and at humidity (RH >90%), by PXRD and Karl-Fisher; format: physicochemical
Experimental: The physical stability of the amorphous form, Form γ and literature Form α of Perindopril (L)-Arginine was determined by storing approximately 3.0 g of the sample a) at 50° C., b) at 70° C., c) at 100° C. and d) at 90% Relative Humidity (RH). […]

[2] = Transformation kinetics: solvent-mediated polymorph transformation (slurry in solvents, PXRD); format: physicochemical; conditions: for Result (polymorphic form by PXRD after slurry): stirred 12 hours; for Form conversion: stirred in toluene or acetonitrile for more than 15 hrs at room temperature; for Form conversion or dissociation: slurry in heptane
Experimental: Solvent-mediated polymorph transformations are an effective method to measure the physical stability for both metastable and thermodynamically stable polymorphs. This study is carried out by slurring 1 g of Form γ, amorphous and literature Form α of Perindopril (L)-Arginine salt in different solvents at 25 to 30° C. for several hours. The solid samples are then characterized by PXRD (example 10, Table 6).
1 g of Perindopril (L)-Arginine salt is suspended in appropriate solvents at different temperature and stirred for 12 hours to afford form γ of Perindopril (L)-Arginine.

[3] = Solid state stability at accelerated stress conditions (40° C./75% relative humidity); format: physicochemical; conditions: 40° C./75% RH
Experimental: The present invention is to provide Perindopril (L)-Arginine (γ) form having the degree of crystallinity under 60%, which has enhanced stability to heat and humidity. According to the present invention, the obtained Perindopril (L)-Arginine (γ) form is subjected to accelerated stability at 40° C. and relative humidity (RH) 75%.
The samples were tested by PXRD, Karl-Fisher titrator and HPLC for final purity and degradation products.

[4] = Hygroscopic studies at different relative humidities; format: physicochemical; conditions: stored in different relative humidities for 1 to 3 months
[5] = tablets, temperate-climate countries; cited from earlier work

## CCC[C@H](N[C@@H](C)C(=O)N1[C@H](C(=O)O)C[C@@H]2CCCC[C@@H]21)C(=O)OCC.N=C(N)NCCC[C@H](N)C(=O)O [Amorphous, Perindopril (L)-Arginine]
[1]; Drying at 25° C., 3 hrs
  Results (polymorphic form by PXRD): Form γ
[1]; Humidity (RH >90%), 3 hrs
  Results (polymorphic form by PXRD): Form γ
[1]; Humidity (RH >90%), 3 hrs, listed as amorphous Perindopril Arginine salt
  Results (polymorphic form by PXRD): polymorphic form γ
[1]; in humidity
  Change in form: converted to Form γ
[2]; ACN, volume 10, 25-30 ° C.
  Result (polymorphic form by PXRD after slurry): Form γ
[2]
  Form conversion: converted to form γ

## CCC[C@H](N[C@@H](C)C(=O)N1[C@H](C(=O)O)C[C@@H]2CCCC[C@@H]21)C(=O)OCC.N=C(N)NCCC[C@H](N)C(=O)O [Form α, Perindopril (L)-Arginine]
[1]; Drying at 70° C., 3 days
  Results (polymorphic form by PXRD): Form α
[1]; Drying at 100° C., 7 days
  Results (polymorphic form by PXRD): Form α
[1]; Humidity (RH >90%), 15 hrs
  Results (polymorphic form by PXRD): Form γ
[1]; in humidity
  Change in form: converted to Form γ
[2]; ACN, volume 5, 25-30 ° C.
  Result (polymorphic form by PXRD after slurry): Form γ
[2]; ACN, volume 5, 70-80 ° C.
  Result (polymorphic form by PXRD after slurry): Form γ
[2]; Toluene, volume 5, 25-30 ° C.
  Result (polymorphic form by PXRD after slurry): Form γ
[2]; n-heptane, volume 5, 25-30 ° C.
  Result (polymorphic form by PXRD after slurry): Form α
[2]
  Form conversion or dissociation: No discernible form conversion or dissociation
  Form conversion: converted to form γ

## CCC[C@H](N[C@@H](C)C(=O)N1[C@H](C(=O)O)C[C@@H]2CCCC[C@@H]21)C(=O)OCC.N=C(N)NCCC[C@H](N)C(=O)O [Form γ, Perindopril (L)-Arginine]
[3]; After 1 month
  PXRD: Same as initial
  Purity (%) (HPLC): 99.2%
  m/c (%) (moisture content, Karl-Fisher): 4.4%
[3]; After 2 months
  PXRD: Same as initial
  Purity (%) (HPLC): 99.1%
  m/c (%) (moisture content, Karl-Fisher): 5.0%
[3]; After 15 days
  PXRD: Same as initial
  Purity (%) (HPLC): 99.2%
  m/c (%) (moisture content, Karl-Fisher): 4.2%
[3]; Initial
  PXRD: Form γ
  Purity (%) (HPLC): 99.1%
  m/c (%) (moisture content, Karl-Fisher): 3.8%
[3]; accelerated stability
  Chemical and physical stability: chemically and physically very stable
  Degradation in HPLC: no degradation
  Increase in moisture content: no substantial increase
[1]; Drying at 70° C., 3 days
  Results (polymorphic form by PXRD): Form γ
[1]; Drying at 100° C., 7 days
  Results (polymorphic form by PXRD): Form γ
[1]; Humidity (RH >90%), 15 hrs
  Results (polymorphic form by PXRD): Form γ
[1]; both drying and humid conditions
  Change in form: no change in form
[2]; ACN, volume 10, 80 ° C.
  Result (polymorphic form by PXRD after slurry): Form v
[2]; Toluene, volume 10, 110 ° C.
  Result (polymorphic form by PXRD after slurry): Form γ
[2]; conclusion from stability and slurry observations
  Relative thermodynamic stability: thermodynamically more stable than Perindopril (L)-Arginine amorphous and form α
[2]; n-heptane, volume 10, 60-80 ° C.
  Result (polymorphic form by PXRD after slurry): Form γ
[2]
  Form conversion or dissociation: No discernible form conversion or dissociation
[4]
  Increase in moisture content: no substantial increase in moisture content

## CC(C)(C)N.CCC[C@H](N[C@@H](C)C(=O)N1[C@H](C(=O)O)C[C@@H]2CCCC[C@@H]21)C(=O)OCC [Perindopril tert-butylamine salt]
[5]
  Shelf-life: ≤ 2 years
